Laboratory results: patent publication US20140121235A1, “Method for Treating S6K-Overexpressing Cancers” (Rush University Medical Center, priority 2012, published 2014)
Entries after “also recorded” stand apart in the source; their conditions may differ.

Columns and labels:
[1] = test system: A375 cells; test: Cell proliferation assay (ATP-based Cell-Glo); details: for inhibitory effect of A77 1726 blocked by uridine: exogenous uridine
Experimental: A375 cells were seeded in 96-well plates (2000 cells/well) and incubated the indicated concentrations of A77 1726 for 72 hr in the absence or presence of various concentrations PLX4720 (A, C) with or without uridine (200 μM) (B, D). Cell proliferation was analyzed by an ATP-based Cell-Glo assay. One representative of three experiments with similar results was shown. *p<0.01.
A375 cells were grown in complete RPMI 1640 medium supplemented with 10% fetal bovine serum. The cells were seeded in 96-well plates at the density of 2,000/well in the absence or presence of various concentrations of A77 1726, PLX4720, or uridine (200 μM). After incubation for 72 hr, cell proliferation was monitored by using an ATP-based Cell-Glo assay (Promegan, Madison, Wis.) following the manufacturer's instruction.

[2] = test system: ribosomal protein S6^S235/S236 phosphorylation; test: Western blot of S6 phosphorylation in A375 cells; assay type: cell-based
Experimental: (§1) A375 cells seeded in a 6-well plate were starved in DMEM medium containing 0.5% FBS for 2 hr and treated with the indicated concentration of A77 1726 or PLX 4720 (1 μM) for another 2 hr (A) or treated with A77 1726 (100 μM) for the indicated time (B & C). Cells were harvested and analyzed for protein phosphorylation by specific antibodies as indicated. Protein loading was monitored by stripping membrane and re-probing with antibodies against non-phosphorylated proteins. […] A375 cells seeded in a 6-well plate were starved in DMEM medium containing 05% FBS for 2 hr and treated with the indicated concentration of A77 1726 in the absence or presence of uridine (200 μM). Phosphorylated and total proteins were analyzed by Western blot as described above.
(§2) A375 cells seeded in 6-well plates were starved in DMEM medium containing 0.5% FBS for 2 hr and then pre-treated with vehicle (0.1% dimethyl sulfoxide), LY294002 (10 μM) (A), PPP (1 μM) (B), or the inhibitors of the MAP kinase pathway (PLX4720, 1 μM; U0126, 10 μM; PD98059, 10 μM) (C) for 1 hr. Cells were then treated with A77 1726 (100 μM) or rapamycin (20 nM) as indicated for 2 hr. Cells were harvested and analyzed for protein phosphorylation by specific antibodies as indicated. Protein loading was monitored by stripping membrane and re-probing with antibodies against non-phosphorylated proteins.
(§3) Cells grown in 6-well plates were harvested and lysed in NP-40 lysis buffer (50 mM Tris-HCI (pH 8.0), 150 mM NaCl, 1% NP-40, 5 mM EDTA, 10 μg/ml aprotinin, 10 μg/ml leupeptin, and 1 mM phenylmethylsulfonyl fluoride). After incubation on ice for 30 min, the cell lysates were prepared by spinning down at 4° C., 15,000 rpm for 15 min. After electrophoresis and transfer to Immobolin membrane, proteins of interest were probed with their specific antibodies, followed by horseradish peroxidase-conjugated goat anti-rabbit IgG and SuperSignal Western Pico enhanced chemiluminoscence substrate (Pierce Chemical Co., Rockford, Ill.).
(§4) The PI-3 and MAP kinase pathways play an important role in cell proliferation, differentiation, and cell cycle progress. Multiple genes in these two pathways are frequently mutated and have a commanding role in driving tumorigenesis and tumor cell proliferation (2; 3). […] Here we tested whether A77 1726 affected the activation of MAP and PI-3 kinase pathways. A375 cells grown in 6-well plates were starved in the media containing 0.5% FBS for 2 hr and then treated with the indicated concentration of A77 1726. […] We next explored the effect of A77 1726 in phosphorylation of the molecules in the PI-3 kinase pathway.

[3] = test system: ERK1/2^T202/Y204 and MEK1/2^S217/S221 phosphorylation; test: Western blot of MAP kinase pathway phosphorylation in A375 cells; assay type: cell-based; details: A375 cells starved in 0.5% FBS; A77 1726 or leflunomide at indicated concentrations, 2 hr
Experimental: as §1, §2, §3, §4

[4] = test system: AKT^S473 and S6K1^T389 phosphorylation; test: Western blot of PI-3 kinase pathway phosphorylation in A375 cells; assay type: cell-based; details: A375 cells, dose-dependent
Experimental: as §1, §2, §3, §4

[5] = test system: BT-20 cells; test: Western blot of protein phosphorylation in BT-20 cells; assay type: cell-based
Experimental: (A) A77 1726 induces MAP kinase activation in A375 cells cultured in 10% fetal bovine serum. A375 cells were seeded in a 6-well plate overnight and then stimulated with various concentrations of A77 1726 or PLX 4720 (1 μM) for 2 hr. Cells were harvested and analyzed for MAP kinase activation by anti-phospho-ERK1/2 antibody. The membrane was stripped and re-probed with anti-ERK1/2 antibody. (B) Lack of the feedback activation of the MAP and PI-3 kinase pathways in BT-20 cells. BT20 cells seeded in 6-well plates were starved in DMEM medium containing 05% EBS for 2 hr and treated with A77 1726 (0, 50 or 100 μM), Cells were harvested and analyzed for protein phosphorylation by specific antibodies as indicated. Protein loading was monitored by stripping membrane and re-probing with antibodies against non-phosphorylated proteins. (C) Strong feedback activation of the PI-3 kinase pathway and weak feedback activation of the MAP kinase pathway in MCF-7 cells by A77 1726 and rapamycin. […] Cells were harvested and analyzed for protein phosphorylation with the indicated antibodies. […] Cells were harvested and analyzed for protein phosphorylation by specific antibodies as indicated. Protein loading was monitored by stripping membrane and re-probing with antibodies against nonphosphorylated proteins. […]

[6] = rheumatoid arthritis patients treated with leflunomide 20 mg/day; cited from earlier work

IC50 ([1]; Homo sapiens, A-375, 72 hr, read-out: IC50, inhibition of A375 proliferation): ~65 µM
IC50 ([2]; Homo sapiens, A-375, read-out: IC50 to inhibit S6 phosphorylation in cell culture): 50 to 75 µM
SMILES: C/C(O)=C(\C#N)C(=O)Nc1ccc(C(F)(F)F)cc1 [A77 1726]
inhibitory effect of A77 1726 blocked by uridine ([1]; A77 1726 at 200 μM): about 20%
inhibitory effect of A77 1726 blocked by uridine ([1]; A77 1726 at 50 or 100 μM): 80%
effect on S6^S235/S236 phosphorylation ([2]; A375 cells, A77 1726 dose-dependent or 100 μM, rapamycin 20 nM, PPP 1 μM): inhibited
effect on ERK1/2 and MEK phosphorylation [3]: rapidly and potently induced; also recorded: strongly induced
effect on AKT^S473 and S6K1^T389 phosphorylation [4]: strongly induced
effect on ERK phosphorylation [5]: had no effect
effect on S6^S235/236 phosphorylation [5]: Inhibition
plasma concentration of A77 1726 [6]: ≤ 200 µM
